Assay: Solution calorimetry (Thermometrics Microcalorimeter) in ethanol at 25° C.
Type: physicochemical
Settings: for Heat of Solution: in ethanol at 25° C.
Protocol: Solution calorimetry was determined using a Thermometrics Microcalorimeter in ethanol at 25° C. The solubilities were likewise determined at 25° C.

| SMILES | Relative stability of the polymorph forms (concluded from the data, particularly the heat of solution) | Heat of Solution |
| --- | --- | --- |
| C/C(=C\c1csc(C)n1)[C@@H]1CC2O[C@]2(C)CCC[C@H](C)[C@H](O)[C@@H](C)C(=O)C(C)(C)[C@@H](O)CC(=O)N1 (single isomer, unassigned) [Form A, [1S-[1R*,3R*(E),7R*,10S*,11R*,12R*,16S*]]-7,11-Dihydroxy-8,8,10,12,16-pentamethyl-3-[1-methyl-2-(2-methyl-4-thiazolyl)ethenyl]-4-aza-17-oxabicyclo[14.1.0]heptadecane-5,9-dione, Form A] | more stable | 4.92 kcal/mol |
| C/C(=C\c1csc(C)n1)[C@@H]1CC2O[C@]2(C)CCC[C@H](C)[C@H](O)[C@@H](C)C(=O)C(C)(C)[C@@H](O)CC(=O)N1 (single isomer, unassigned) [Form B, [1S-[1R*,3R*(E),7R*,10S*,11R*,12R*,16S*]]-7,11-Dihydroxy-8,8,10,12,16-pentamethyl-3-[1-methyl-2-(2-methyl-4-thiazolyl)ethenyl]-4-aza-17-oxabicyclo[14.1.0]heptadecane-5,9-dione, Form B] | – | 2.36 kcal/mol |
